Laboratory results taken from paper PMC9087011 (Clinical Pharmacology and Therapeutics, 2022).

What was measured:
[1] = Overall safety and tolerability; type: in vivo, human; conditions: for Safety and tolerability (overall): SAD, MAD and supratherapeutic cohorts, healthy participants
[2] = 500 mg single dose, fasted, no ritonavir; individual values (N2=2)
[3] = test system: SARS‐CoV‐2 viral replication; conditions: in vitro EC90 adjusted for plasma protein binding; cited from earlier work
[4] = test system: cytochrome P450 3A4 (CYP3A4); conditions: cited from earlier work
SARS‐CoV‐2 = conditions: oral administration; cited from earlier work
clinical = conditions: human, in vivo

CC(C)(C)[C@H](NC(=O)C(F)(F)F)C(=O)N1C[C@H]2[C@@H]([C@H]1C(=O)N[C@H](C#N)C[C@@H]1CCNC1=O)C2(C)C [Nirmatrelvir]
Safety and tolerability (overall) [1]: safe and well‐tolerated | Safety and tolerability (overall) ([1]; listed as nirmatrelvir): no safety concerns were identified | Changes in laboratory values (≥ grade 2), vital sign or ECG measurements ([1]; with or without ritonavir): No clinically meaningful changes | AUCinf [2]: 5,450 ng hour/mL | t ½ [2]: 25.6 h | total plasma EC90 (90% inhibition of SARS‐CoV‐2 viral replication) [3]: 0.292 µg/mL | Metabolism [4]: primarily metabolized by cytochrome P450 3A4 (CYP3A4) | Effect on pulmonary viral titers (SARS‐CoV‐2): dose‐dependent reduction of pulmonary viral titers | Tmax (clinical): 1 h | Cmax (clinical; 150 mg): 668 ng/mL | Tmax (clinical; 150 mg): 0.634 h | Cmax (clinical; 500 mg): 674 ng/mL | Tmax (clinical; 500 mg): 1 h
